From BigSolDB 2.1

N#CNC(=N)N
solubility (mole fraction)
Settings	278.15 K	283.15 K	288.15 K	293.15 K	298.15 K	303.15 K	308.15 K	313.15 K	318.15 K	323.15 K
in DMF	0.183	0.19	0.205	0.215	0.225	0.243	0.248	0.256	0.268	0.275
in acetone	0.00744	0.0084	0.00923	0.0101	0.011	0.0118	0.0127	0.0136	0.0144	0.015
in ethanol	0.00374	0.00403	0.00449	0.00493	0.00591	0.00654	0.00738	0.00805	0.00883	0.0097
in ethylene glycol	0.0187	0.0245	0.0289	0.0377	0.048	0.0587	0.0655	0.0805	0.0995	0.12
in methanol	0.0141	0.0162	0.0193	0.021	0.0231	0.0264	0.028	0.0297	0.032	0.0347
in water	0.00303	0.00387	0.00526	0.00707	0.00891	0.0114	0.0141	0.0172	0.021	0.0265
